{
  "source": "patent US20080275009A1",
  "about": "“ORAL ADMINISTRATION OF N-(2-CHLORO-6-METHYLPHENYL)-2-[[6-[4-(2-HYDROXYETHYL)-1-PIPERAZINYL]-2-METHYL-4-PYRIMIDINYL]AMINO]-1,3-THIAZOLE-5-CARBOXAMIDE AND SALTS THEREOF” (Bristol-Myers Squibb Company, priority 2005, published 2008)",
  "key": {"[1]": {"test": "aqueous solubility of Compound I as a function of pH", "format": "physicochemical", "conditions": "aqueous medium, pH of 2 compared with pH of 5"}, "[2]": {"tested_on": "PDGF receptor", "conditions": "general statement, method or value not given; cited from earlier work"}, "[3]": {"tested_on": "EPH receptor", "conditions": "general statement, method or value not given; cited from earlier work"}},
  "data": [
    {"smiles": "Cc1nc(Nc2ncc(C(=O)Nc3c(C)cccc3Cl)s2)cc(N2CCN(CCO)CC2)n1", "note": "[Compound I, N-(2-chloro-6-methylphenyl)-2-((6-(4-(2-hydroxyethyl)-1-piperazinyl)-2-methyl-4-pyrimidinyl)amino)-1,3-thiazole-5-carboxamide]", "values": [
      {"measurement": "aqueous solubility", "setting": "[1]", "value": "higher solubility at a pH of 2 than at a pH of 5"},
      {"measurement": "inhibition of PDGF receptor", "setting": "[2]", "value": "potent inhibitor"},
      {"measurement": "inhibition of EPH receptor", "setting": "[3]", "value": "potent inhibitor"}
    ]}
  ]
}
